Experimental data: patent US11976058B2, “Aromatic derivatives, preparation methods, and medical uses thereof” (Bioardis LLC, priority 2019, dated 2024)
Read-outs that look alike come from different tables or passages of the source.

Experiments:
[1] = target: T1, human FGFR4 (Homo sapiens, UniProt P22455); test: FGFR4 enzymatic assay (HTRF KinEASE-TK); assay type: biochemical; conditions: wild-type human FGFR4 cytoplasmic domain (460-802), GST-tag; 60 min preincubation at 25° C.; ATP 200 μM; read-out: Potency (IC50), FGFR4 enzymatic assay
T1 construct: human FGFR4 cytoplasmic domain (460-802); GST (N); purchased Carna Biosciences 08-136
T1 sequence (P22455 460-802): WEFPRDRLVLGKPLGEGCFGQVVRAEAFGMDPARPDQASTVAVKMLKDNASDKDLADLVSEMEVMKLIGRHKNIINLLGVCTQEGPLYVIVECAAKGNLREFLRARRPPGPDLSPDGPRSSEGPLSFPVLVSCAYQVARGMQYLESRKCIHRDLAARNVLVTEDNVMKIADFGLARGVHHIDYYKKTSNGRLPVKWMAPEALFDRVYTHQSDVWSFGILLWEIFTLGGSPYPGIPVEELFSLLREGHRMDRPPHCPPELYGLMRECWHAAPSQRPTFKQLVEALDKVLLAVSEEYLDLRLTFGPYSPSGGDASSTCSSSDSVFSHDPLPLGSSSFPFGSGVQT
Summary of the method: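 GST-tagged FGFR4 cytoplasmic domain (460-802) at 0.25 μg/ml, preincubated with compound 60 min at 25 °C in HEPES pH 7.0 buffer, then reacted 40 min at 37 °C with 0.3 μM biotin-TK peptide and 200 μM ATP. HTRF detection (665/612 nm) after 60 min; IC50 by four-parameter logistic fit.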

[2] = tested on: Hep3B cells; test: Cell-based FGFR4 proliferation assay (CellTiter-Glo); conditions: incubated with test compound for 3 days, CellTiter-Glo luminescence, read-out: Potency (IC50), Hep3B cell proliferation
Description: Hepatocellular carcinoma cell line Hep3B (ATCC, Cat #HB-8064) were cultured at 37° C., 5% CO2 in ATCC-formulated Eagle's Minimum Essential Medium supplemented with 10% fetal bovine serum; 1% Penicillin-Streptomycin.
(§1) Cell line: Hepatocellular carcinoma cell line Hep3B (ATCC, Cat #HB-8064).
In this assay, Hep3B cells are seeded in 384-well microplates, and after exposure to experimental compounds for […], CellTiter-Glo® Luminescent Cell Viability Assay kit (Promega, Cat #G7572) are used to determine the number of viable cells in the culture based on quantitation of the ATP present, which signals the presence of metabolically active cells. Luminescent signal is proportional to the amount of ATP present. The amount of ATP is directly proportional to the number of cells present in the culture, allowing drug-induced effects on cell proliferation to be measured.
Hep3B cells were plated at a density of 4×10^4/ml cells in a 384-well black/clear microplate with 20 μL per well of MEM Medium (Gibco Cat. #11095-080) supplemented with 10% fetal bovine serum; 1% Penicillin-Streptomycin, and cultured overnight at 37° C., 5% CO2. Various concentrations of the test compound (dissolved in 100% DMSO) were added to the wells of the cell plate. The cells were incubated with the test compound for 3 days at 37° C., 5% CO2. 5 μL of CellTiter-Glo® Reagent was added to each well of the cell plate. The cell plate was incubated for 5 min at 25° C. on a plate shaker (IKA MTS 2/4) at 300 rpm. Luminescence signals were read on a TECAN Spark 10M instrument (TECAN). […] The concentrations and percent inhibition values for a test compound were plotted and the concentration of the compound required to achieve 50% inhibition (IC50) is determined with a four-parameter logistic dose response equation. Dose-response curves were generated using Prism (GraphPad Software, La Jolla, CA, US) to calculate IC50 values for each compound tested.

[3] = tested on: MAPK phosphorylation in Hep3B cells stimulated with FGF19; test: FGFR4 pMAPK AlphaLISA SureFire Ultra assay; assay type: cell-based; conditions: serum-starved, compound 1 hour, FGF19 100 ng/ml for 4 hours, read-out: Potency (IC50), FGFR4 pMAPK AlphaLISA
Description: as §1
In normal liver, circulating FGF19 drives liver cell proliferation and regulates bile acid production. However aberrant expression of FGF19 in the liver drives HCC tumorigenesis, upregulates MAPK phosphorylation in FGF19-amplified malignant liver cells. AlphaScreen SureFire technology allows the detection of phosphorylated proteins in cellular lysates in a highly sensitive, quantitative assay. In these assays, sandwich antibody complexes, which are only formed in the presence of analyte, are captured by AlphaScreen Donor and Acceptor beads, bringing them into close proximity. The excitation of the Donor bead provokes the release of singlet oxygen molecules that triggers a cascade of energy transfer in the Acceptor beads, resulting in the emission of light at 520-620 nm.
Hep3B cells were plated at a density of 1×10^4/ml cells in a 96-well plate (Corning #3599), with 100 uL per well of MEM Medium (Gibco Cat #11095-080) supplemented with 10% fetal bovine serum; 1% Penicillin-Streptomycin, and cultured overnight at 37° C., 5% CO2. Starve Hep3B cells in serum-free medium (SFM) supplemented with 0.2% BSA and incubate the cells again overnight at 37° C., 5% CO2. Various concentrations of the test compound (prepared in 2x SFM) were added to the wells of the cell plate and then incubated for 1 hour at 37° C., 5% CO2. 50 μL of FGF19 in SFM was added to each well of the cell plate with a final FGF19 concentration of 100 ng/ml, and cells treated with FGF19 were stimulated for 4 hours at 37° C., 5% CO2. 5 μL of freshly prepared Donor Mix and Acceptor Mix were sequentially added to the cell plate, each followed with 1 hour of incubation at 25° C., 5% CO2. Read the cell plate on an Alpha Technology-compatible plate reader at 570 nm AlphaScreen, using standard AlphaLISA settings. The percent (%) inhibition=((ZPE−Alpha-Signal)/(ZPE−HPE))*100% where the meanings of HPE and ZPE are as provided below.
HPE: Hundred Percent Effect, negative control well without FGF19 nor compound. Final concentration of DMSO is 0.1%.
ZPE: Zero Percent Effect, positive control well without compound. Final concentration of FGF19 is 100 ng/mL, DMSO is 0.1%.
The concentrations and percent inhibition values for a test compound were plotted and the concentration of the compound required to achieve 50% inhibition (IC50) was determined with a four-parameter logistic dose response equation. Dose-response curves were generated using Prism (GraphPad Software, La Jolla, CA, US) to calculate IC50 values for each compound tested.

[2H]C([2H])([2H])n1ncc(NC(=O)C=C)c1-c1n[nH]c2c1CCC(c1cc(OC)cc(OC)c1F)C2 (single isomer, unassigned) [Compound S16-P3, N-(5-(6-(2-fluoro-3,5-dimethoxyphenyl)-4,5,6,7-tetrahydro-1H-indazol-3-yl)-1-(methyl-d3)-1H-pyrazol-4-yl)acrylamide]
IC50 [1]: 0.01 to 0.1 µM | IC50 ([2]; Homo sapiens, Hep3B, 72 h): > 0.1 µM | IC50 ([3]; Homo sapiens, Hep3B): 0.01 to 0.1 µM

[2H]C([2H])([2H])n1ncc(NC(=O)C=C)c1-c1n[nH]c2c1CCC(c1cc(OC)cc(OC)c1F)C2 (single isomer, unassigned) [Compound S16-P4, N-(5-(6-(2-fluoro-3,5-dimethoxyphenyl)-4,5,6,7-tetrahydro-1H-indazol-3-yl)-1-(methyl-d3)-1H-pyrazol-4-yl)acrylamide]
IC50 [1]: 0.01 to 0.1 µM | IC50 [2]: > 0.1 µM | IC50 [3]: 0.01 to 0.1 µM

C=CC(=O)Nc1cnn(C(C)C)c1-c1n[nH]c2c1CCC(c1c(F)c(OC)cc(OC)c1F)C2 (single isomer, unassigned) [Compound S17-P1, N-(5-(6-(2,6-difluoro-3,5-dimethoxyphenyl)-4,5,6,7-tetrahydro-1H-indazol-3-yl)-1-isopropyl-1H-pyrazol-4-yl)acrylamide]
IC50 [1]: 0.01 to 0.1 µM | IC50 [2]: > 0.1 µM | IC50 ([3]; Homo sapiens, Hep3B): 0.01 to 0.1 µM

C=CC(=O)Nc1cnn(C(C)C)c1-c1n[nH]c2c1CCC(c1c(F)c(OC)cc(OC)c1F)C2 (single isomer, unassigned) [Compound S17-P2, N-(5-(6-(2,6-difluoro-3,5-dimethoxyphenyl)-4,5,6,7-tetrahydro-1H-indazol-3-yl)-1-isopropyl-1H-pyrazol-4-yl)acrylamide]
IC50 [1]: 0.01 to 0.1 µM | IC50 [2]: 0.01 to 0.1 µM | IC50 [3]: < 0.01 µM

C=CC(=O)Nc1cnn(C)c1-c1n[nH]c2c1CCC(c1c(F)c(OC)cc(OC)c1F)=C2 [Compound S5-P1, N-(5-(6-(2,6-difluoro-3,5-dimethoxyphenyl)-4,5-dihydro-1H-indazol-3-yl)-1-methyl-1H-pyrazol-4-yl) acrylamide]
IC50 [1]: 0.01 to 0.1 µM | IC50 ([2]; Homo sapiens, Hep3B, 72 h): 0.01 to 0.1 µM | IC50 ([3]; Homo sapiens, Hep3B): < 0.01 µM

C=CC(=O)Nc1cnn(C)c1-c1n[nH]c2c1CCC(c1cc(OC)cc(OC)c1F)=C2 [Compound S5-P2, N-(5-(6-(2-fluoro-3,5-dimethoxyphenyl)-4,5-dihydro-1H-indazol-3-yl)-1-methyl-1H-pyrazol-4-yl)acrylamide]
IC50 [1]: 0.01 to 0.1 µM | IC50 ([2]; Homo sapiens, Hep3B, 72 h): > 0.1 µM | IC50 ([3]; Homo sapiens, Hep3B): 0.01 to 0.1 µM

C=CC(=O)Nc1cnn(C)c1-c1n[nH]c2c1CCC1(C2)OCc2c(OC)cc(OC)c(F)c21 (stereo not drawn) [Compound S9, N-(5-(7′-fluoro-4′,6′-dimethoxy-1,4,5,7-tetrahydro-3′H-spiro[indazole-6,1′-isobenzofuran]-3-yl)-1-methyl-1H-pyrazol-4-yl)acrylamide]
IC50 [1]: 0.01 to 0.1 µM | IC50 ([2]; Homo sapiens, Hep3B, 72 h): > 0.1 µM | IC50 ([3]; Homo sapiens, Hep3B): > 0.1 µM

C=CC(=O)Nc1cn[nH]c1-c1n[nH]c2c1CCC[C@@H](c1c(F)c(OC)cc(OC)c1F)C2 [Compound S11-P2, (R)—N-(5-(7-(2,6-difluoro-3,5-dimethoxyphenyl)-1,4,5,6,7,8-hexahydrocyclohepta[c]pyrazol-3-yl)-1H-pyrazol-4-yl)acrylamide]
IC50 [1]: < 0.01 µM | IC50 [2]: < 0.01 µM | IC50 [3]: < 0.01 µM

C=CC(=O)Nc1cnn(CC)c1-c1n[nH]c2c1CC[C@@H](c1c(F)c(OC)cc(OC)c1F)C2 [Compound S14-P1, (R)—N-(5-(6-(2,6-difluoro-3,5-dimethoxyphenyl)-4,5,6,7-tetrahydro-1H-indazol-3-yl)-1-ethyl-1H-pyrazol-4-yl) acrylamide]
IC50 [1]: 0.01 to 0.1 µM | IC50 ([2]; Homo sapiens, Hep3B, 72 h): > 0.1 µM | IC50 ([3]; Homo sapiens, Hep3B): 0.01 to 0.1 µM

C=CC(=O)Nc1cnn(CC)c1-c1n[nH]c2c1CC[C@H](c1c(F)c(OC)cc(OC)c1F)C2 [Compound S14-P2, (S)—N-(5-(6-(2,6-difluoro-3,5-dimethoxyphenyl)-4,5,6,7-tetrahydro-1H-indazol-3-yl)-1-ethyl-1H-pyrazol-4-yl) acrylamide]
IC50 [1]: < 0.01 µM | IC50 ([2]; Homo sapiens, Hep3B, 72 h): 0.01 to 0.1 µM | IC50 ([3]; Homo sapiens, Hep3B): < 0.01 µM
